# Experimental data: patent publication US11236069B2, “KIF18A inhibitors” (AMGEN INC., priority 2018, dated 2022)
# Target: Recombinant human KIF18A (1-467 His-tagged) protein (Homo sapiens (Human), UniProt Q8NI77)
# Test: KIF18A Enzyme Assay: microtubule-stimulated ATPase activity (ADP-Glo)
# Settings: read-out: KIF18A ATPase IC50
# Description: KIF18A Enzyme Assay: Microtubule-stimulated ATPase activity assay is used to measure KIF18A enzyme activity after treatment with compound. Compounds were 2-fold serially diluted in DMSO (Sigma Inc) over 22-point concentration range. […] The assay measures ADP formed from the ATPase reaction.
# Recombinant human KIF18A (1-467 His-tagged) protein, sequence (Q8NI77 1-467): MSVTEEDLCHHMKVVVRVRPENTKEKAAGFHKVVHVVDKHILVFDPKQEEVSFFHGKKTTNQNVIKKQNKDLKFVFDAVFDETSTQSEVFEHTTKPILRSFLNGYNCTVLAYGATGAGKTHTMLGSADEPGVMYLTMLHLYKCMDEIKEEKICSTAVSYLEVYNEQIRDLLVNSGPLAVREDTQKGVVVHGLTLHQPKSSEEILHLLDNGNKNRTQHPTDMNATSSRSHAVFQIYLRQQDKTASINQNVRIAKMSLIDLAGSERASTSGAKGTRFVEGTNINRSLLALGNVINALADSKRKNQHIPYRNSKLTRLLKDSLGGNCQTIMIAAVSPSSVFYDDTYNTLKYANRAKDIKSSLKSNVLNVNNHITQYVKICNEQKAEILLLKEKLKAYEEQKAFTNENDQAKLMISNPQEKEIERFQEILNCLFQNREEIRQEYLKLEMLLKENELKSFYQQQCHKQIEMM
# Recombinant human KIF18A (1-467 His-tagged) protein, sequence (P02550 whole entry partner): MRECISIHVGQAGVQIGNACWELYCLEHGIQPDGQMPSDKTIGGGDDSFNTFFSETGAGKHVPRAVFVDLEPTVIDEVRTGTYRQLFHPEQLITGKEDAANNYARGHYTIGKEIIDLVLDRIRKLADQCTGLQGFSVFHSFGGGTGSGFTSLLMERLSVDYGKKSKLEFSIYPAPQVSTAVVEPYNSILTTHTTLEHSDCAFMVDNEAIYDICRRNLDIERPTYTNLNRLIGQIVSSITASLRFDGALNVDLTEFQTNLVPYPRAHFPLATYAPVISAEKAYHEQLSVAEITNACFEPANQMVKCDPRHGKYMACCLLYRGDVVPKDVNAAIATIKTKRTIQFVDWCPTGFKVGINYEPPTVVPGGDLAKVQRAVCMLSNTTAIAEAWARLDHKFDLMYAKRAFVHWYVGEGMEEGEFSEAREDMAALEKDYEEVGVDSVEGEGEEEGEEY
# Recombinant human KIF18A (1-467 His-tagged) protein, sequence (P02554 whole entry partner): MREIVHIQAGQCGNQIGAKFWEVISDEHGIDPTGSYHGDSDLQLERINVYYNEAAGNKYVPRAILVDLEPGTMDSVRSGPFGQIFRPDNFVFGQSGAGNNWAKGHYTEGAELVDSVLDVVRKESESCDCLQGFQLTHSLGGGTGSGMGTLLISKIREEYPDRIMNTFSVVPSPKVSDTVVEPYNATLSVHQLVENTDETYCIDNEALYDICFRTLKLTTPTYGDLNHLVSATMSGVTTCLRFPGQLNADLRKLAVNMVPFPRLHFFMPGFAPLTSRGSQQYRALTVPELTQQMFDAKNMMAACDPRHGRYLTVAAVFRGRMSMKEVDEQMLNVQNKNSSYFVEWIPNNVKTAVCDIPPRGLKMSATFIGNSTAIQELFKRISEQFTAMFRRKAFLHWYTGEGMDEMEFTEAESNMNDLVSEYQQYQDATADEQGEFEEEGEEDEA
row,Compound,IC50
1,"Cc1cc(NC(=O)c2ccc(NS(=O)(=O)[C@@H](C)CO)cc2N2CCC3(CC2)CC3)nc(N2CCC(F)(F)CC2)n1 [Example 5-2, (S)-N-(2-(4,4-Difluoropiperidin-1-yl)-6-methylpyrimidin-4-yl)-4-((2-hydroxy-1-methylethyl)sulfonamido)-2-(6-azaspiro[2.5]octan-6-yl)benzamide]",70 nM

# Same assay, conditions: read-out: KIF18A ATPase IC50; 30 nM KIF18A, 30 μg/mL pig microtubules, ATP at Km 75 μM, ADP-Glo luminescence
row,Compound,IC50
1,"C[C@@H]1CN(c2nccc(NC(=O)c3ccc(NS(=O)(=O)C[C@@H](C)O)cc3N3CCC4(CC3)CC4)n2)CCO1 [Example 6-33-2, 4-(((R)-2-hydroxypropyl)sulfonamido)-N-(2-((R)-2-methylmorpholino)pyrimidin-4-yl)-2-(6-azaspiro[2.5]octan-6-yl)benzamide]",86 nM
2,"Cc1cc(NC(=O)c2ccc(S(=O)(=O)CC(C)(C)O)cc2N2CCC3(CC2)CC3)nc(N2CCC(F)(F)CC2)n1 [Example 14-4, N-(2-(4,4-Difluoropiperidin-1-yl)-6-methylpyrimidin-4-yl)-4-((2-hydroxy-2-methylpropyl)sulfonyl)-2-(6-azaspiro[2.5]octan-6-yl)benzamide]",806 nM
3,"Cc1cc(NC(=O)c2ccc(NS(=O)(=O)C3COC3)cc2N2CCC3(CC2)CC3)nc(N2CC(F)(F)C2)n1 [Example 11-23, N-(2-(3,3-Difluoroazetidin-1-yl)-6-methylpyrimidin-4-yl)-4-(oxetane-3-sulfonamido)-2-(6-azaspiro[2.5]octan-6-yl)benzamide]",48.9 nM
4,"Cc1cc(NC(=O)c2ccc(S(=O)(=O)[C@@H]3CCC[C@H]3O)cc2N2CCC3(CC2)CC3)nc(N2CCC(F)(F)CC2)n1 [Example 14-9, N-(2-(4,4-Difluoropiperidin-1-yl)-6-methylpyrimidin-4-yl)-4-(((1R,2R)-2-hydroxycyclopentyl)sulfonyl)-2-(6-azaspiro[2.5]octan-6-yl)benzamide]",195 nM
5,"Cc1cc(NC(=O)c2ccc(S(=O)(=O)NC3(C)COC3)cc2N2CCC3(CC2)CC3)nc(N2CCO[C@H](C)C2)n1 [Example 2-3, (R)-N-(6-Methyl-2-(2-methylmorpholino)pyrimidin-4-yl)-4-(N-(3-methyloxetan-3-yl)sulfamoyl)-2-(6-azaspiro[2.5]octan-6-yl)benzamide]",115 nM
6,"CCS(=O)(=O)c1ccc(C(=O)Nc2cc(C)nc(N3CCC(F)(F)CC3)n2)c(N2CCC3(CC2)CC3)c1 [Example 14-2, N-(2-(4,4-Difluoropiperidin-1-yl)-6-methylpyrimidin-4-yl)-4-(ethylsulfonyl)-2-(6-azaspiro[2.5]octan-6-yl)benzamide]",108 nM
7,"Cc1cc(NC(=O)c2ccc(S(C)(=O)=O)cc2N2CCC3(CC2)CC3)nc(NC[C@H](C)O)n1 [Example 1-5, (S)-N-(2-((2-Hydroxypropyl)amino)-6-methylpyrimidin-4-yl)-4-(methylsulfonyl)-2-(6-azaspiro[2.5]octan-6-yl)benzamide]",451 nM
8,"Cc1cc(NC(=O)c2ccc(NS(=O)(=O)CCO)cc2N2CCC3(CC2)CC3)nc(N2CCC2)n1 [Example 11-19, N-(2-(Azetidin-1-yl)-6-methylpyrimidin-4-yl)-4-((2-hydroxyethyl)sulfonamido)-2-(6-azaspiro[2.5]octan-6-yl)benzamide]",205 nM
9,"Cc1cc(NC(=O)c2ccc(NS(=O)(=O)CCO)cc2N2CCC3(CC2)CC3)nc(N2CCC[C@H](O)C2)n1 [Example 11-53, (S)-4-((2-Hydroxyethyl)sulfonamido)-N-(2-(3-hydroxypiperidin-1-yl)-6-methylpyrimidin-4-yl)-2-(6-azaspiro[2.5]octan-6-yl)benzamide]",105 nM
10,"O=C(Nc1ccnc(OCCC(F)(F)F)n1)c1ccc(S(=O)(=O)NCCO)cc1N1CCC2(CC1)CC2 [Example 17-1, 4-(N-(2-Hydroxyethyl)sulfamoyl)-2-(6-azaspiro[2.5]octan-6-yl)-N-(2-(3,3,3-trifluoropropoxy)pyrimidin-4-yl)benzamide]",27 nM
11,"O=C(Nc1ccnc(N2CCC(F)(F)CC2)c1)c1ccc(NS(=O)(=O)CCO)cc1N1CCC2(CC1)CC2 [Example 6-29, N-(2-(4,4-Difluoropiperidin-1-yl)pyridin-4-yl)-4-((2-hydroxyethyl)sulfonamido)-2-(6-azaspiro[2.5]octan-6-yl)benzamide]",17 nM
12,"Cc1cc(NC(=O)c2ccc(NS(=O)(=O)CCO)cc2N2CCC3(CC2)CC3)nc(N2C[C@H]3C[C@H]3C2)n1 [Example 11-29, N-(2-((1R,5S)-3-Azabicyclo[3.1.0]hexan-3-yl)-6-methylpyrimidin-4-yl)-4-((2-hydroxyethyl)sulfonamido)-2-(6-azaspiro[2.5]octan-6-yl)benzamide]",20 nM
13,"Cc1cc(NC(=O)c2ccc(NS(=O)(=O)CCO)cc2N2CCC3(CC2)CC3)nc(N2CCC3C[C@]3(O)C2)n1 (stereo partly drawn) [Example 11-42, N-(2-((1R)-1-Hydroxy-3-azabicyclo[4.1.0]heptan-3-yl)-6-methylpyrimidin-4-yl)-4-((2-hydroxyethyl)sulfonamido)-2-(6-azaspiro[2.5]octan-6-yl)benzamide]",34 nM
14,"Cc1cc(NC(=O)c2cc(C)c(NS(=O)(=O)CCO)cc2N2CCC3(CC2)CC3)nc(N2CCC(F)(F)CC2)n1 [Example 6-35, N-(2-(4,4-Difluoropiperidin-1-yl)-6-methylpyrimdin-4-yl)-4-((2-hydroxyethyl)sulfonamido)-5-methyl-2-(6-azaspiro[2.5]octan-6-yl)benzamide]",144 nM
15,"Cc1cc(NC(=O)c2ccc(NS(=O)(=O)[C@H](C)CO)cc2N2CCC3(CC2)CC3)nc(N2CC(F)(F)C2)n1 (single isomer, unassigned) [Example 11-76]",20 nM
16,"COCCS(=O)(=O)Nc1ccc(C(=O)Nc2cc(C)nc(N3CCC(F)(F)CC3)n2)c(N2CCC3(CC2)CC3)c1 [Example 6-17, N-(2-(4,4-Difluoropiperidin-1-yl)-6-methylpyrimidin-4-yl)-4-((2-methoxyethyl)sulfonamido)-2-(6-azaspiro[2.5]octan-6-yL)benzamide]",32 nM
17,"Cc1cc(NC(=O)c2ccc(NS(=O)(=O)CF)cc2N2CCC3(CC2)CC3)nc(N2CCO[C@H](C)C2)n1 [Example 6-3, (R)-4-((Fluoromethyl)sulfonamido)-N-(6-methyl-2-(2-methylmorpholino)pyrimidin-4-yl)-2-(6-azaspiro[2.5]octan-6-yl)benzamide]",79 nM
18,"Cc1cc(NC(=O)c2cc(F)c(NS(=O)(=O)[C@H](C)CO)cc2N2CCC3(CC2)CC3)nc(N2CCC(F)(F)CC2)n1 (single isomer, unassigned) [Example 8-1]",91 nM
19,"C[C@@H]1CN(c2nc(NC(=O)c3ccc(NS(=O)(=O)CCO)cc3N3CCC4(CC3)CC4)cc(C(C)(C)O)n2)CCO1 [Example 6-40, (R)-4-((2-Hydroxyethyl)sulfonamido)-N-(6-(2-hydroxypropan-2-yl)-2-(2-methylmorpholino)pyrimidin-4-yl)-2-(6-azaspiro[2.5]octan-6-yl)benzamide]",161 nM
20,"Cc1cc(NC(=O)c2ccc(NS(=O)(=O)C[C@H](C)O)cc2N2CCC3(CC2)CC3)nc(N2CCC(F)(F)CC2)n1 [Example 6-32-2, (S)-N-(2-(4,4-Difluoropiperidin-1-yl)-6-methylpyrimidin-4-yl)-4-((2-hydroxypropyl)sulfonamido)-2-(6-azaspiro[2.5]octan-6-yl)benzamide]",141 nM
21,"Cc1cc(NC(=O)c2ccc(NS(=O)(=O)CCO)cc2N2CCC3(CC2)CC3)nc(N2CCC(O)CC2)n1 [Example 11-37, 4-((2-Hydroxyethyl)sulfonamido)-N-(2-(4-hydroxypiperidin-1-yl)-6-methylpyrimidin-4-yl)-2-(6-azaspiro[2.5]octan-6-yl)benzamide]",144 nM
22,"Cc1cc(NC(=O)c2ccc(NS(=O)(=O)CCCO)cc2N2CCC3(CC2)CC3)nc(N2CCC(F)(F)CC2)n1 [Example 6-15, N-(2-(4,4-Difluoropiperidin-1-yl)-6-methylpyrimidin-4-yl)-4-((3-hydroxypropyl)sulfonamido)-2-(6-azaspiro[2.5]octan-6-yl)benzamide]",86 nM
23,"O=C(Nc1ccnc(OCCC(F)(F)F)c1)c1ccc(NS(=O)(=O)CCO)cc1N1CCC2(CC1)CC2 [Example 11-59, 4-((2-Hydroxyethyl)sulfonamido)-2-(6-azaspiro[2.5]octan-6-yl)-N-(2-(3,3,3-trifluoropropoxy)pyridin-4-yl)benzamide]",58 nM
24,"Cc1cc(NC(=O)c2ccc(NS(=O)(=O)CCO)cc2N2CCC3(CC2)CC3)nc(N2CC([C@H](C)O)C2)n1 [Example 11-21, (S)-N-(2-(3-(1-Hydroxyethyl)azetidin-1-yl)-6-methylpyrimidin-4-yl)-4-((2-hydroxyethyl)sulfonamido)-2-(6-azaspiro[2.5]octan-6-yl)benzamide]",704 nM
25,"Cc1cc(NC(=O)c2ccc(NS(C)(=O)=O)cc2N2CCC3(CC2)CC3)nc(N2CC(F)(F)C2)n1 [Example 11-24, N-(2-(3,3-Difluoroazetidin-1-yl)-6-methylpyrimidin-4-yl)-4-(methylsulfonamido)-2-(6-azaspiro[2.5]octan-6-yl)benzamide]",55.1 nM
26,"Cc1cc(NC(=O)c2ccc(S(=O)(=O)C(C)(C)C)cc2N2CCC3(CC2)CC3)nc(N2CCC(F)(F)CC2)n1 [Example 14-6, 4-(tert-Butylsulfonyl)-N-(2-(4,4-difluoropiperidin-1-yl)-6-methylpyrimidin-4-yl)-2-(6-azaspiro[2.5]octan-6-yl)benzamide]",1880 nM
27,"Cc1cc(NC(=O)c2ccc(NS(=O)(=O)CCO)cc2N2CCC3(CC2)CC3)nc(N2CCCCC2)n1 [Example 11-36, 4-((2-Hydroxyethyl)sulfonamido)-N-(6-methyl-2-(piperidin-1-yl)pyrimidin-4-yl)-2-(6-azaspiro[2.5]octan-6-yl)benzamide]",82 nM
28,"Cc1cc(NC(=O)c2ccc(NS(=O)(=O)CCO)cc2N2CCC3(CC2)CC3)nc(N2CCO[C@@H](C)C2)n1 [Example 11-45, (S)-4-((2-Hydroxyethyl)sulfonamido)-N-(6-methyl-2-(2-methylmorpholino)pyrimidin-4-yl)-2-(6-azaspiro[2.5]octan-6-yl)benzamide]",35 nM
29,"Cc1cc(NC(=O)c2ccc(NS(=O)(=O)C[C@@H](C)O)cc2N2CCC3(CC2)CC3)nc(N2CC(F)(F)C2)n1 (single isomer, unassigned) [Example 10-1]",83 nM
